Source: patent US20180318383A1, “PEPTIDE HAVING NEURONAL LOSS PREVENTION AND REGENERATION EFFECTS, AND COMPOSITION CONTAINING SAME” (GEMVAX & KAEL CO., LTD., priority 2015, published 2018)

Tests used:
[1] = test system: Tau; assay: NFT generation (Tau expression) in 3XTg-AD mice (western blotting, immunostaining); format: in vivo; conditions: hippocampus and whole brain; vs control and Donepezil
Procedure: (§1) To test the efficacy of PEP1 on AD, AD transgenic mice (3XTg-AD) were purchased from Jackson Laboratory. Genetic characteristics of the transgenic mice are as follows: B6; 129-Psen1tm1Mpm Tg(APPSwe, tauP301L)1Lfa/Mmjax. […] One week after mice were confirmed as pregnant, new mice were delivered and weaned for 3 weeks. Two weeks later, mature mice were obtained.
(§2) During the preliminary breeding and the entire period of the experiment, a temperature was maintained at 23±2° C. and a relative humidity was maintained at 60±10%, and then the mice were raised under a 12-hour dark/light cycle. Experimental animals were divided into five groups, and each group included 10 animals. The divided experimental groups are as follows. […]
(§3) The PEP1, physiological saline, donepezil and scramble peptide were subcutaneously injected at each concentration three times a week for two months from the age of 12 months, and then two months after the injection, cognitive/memory behavior tests (passive avoidance test and Y maze test) were performed to examine a degree of improvement in cognitive function and memory function. After the brain was extracted to separate the hippocampus, the amounts of amyloid beta in the hippocampus and the whole brain, and the amounts of an amyloid beta oligomer and NFT generated by tau hyperphosphorylation were determined by western blotting and immunostaining. […]

[2] = test system: NSCs; assay: NSC differentiation in bFGF-free N2 medium (immunostaining); format: cell-based, rat; conditions: Aβ25-35 increased GFAP-positive and decreased NeuN-positive cells
Procedure: NSC differentiation was induced by changing the cell culture medium to a bFGF (10 ng/ml)-free N2 medium, and the medium was exchanged daily.
Immunostaining was carried out to confirm intracellular expression and locations. For immunostaining, the following antibodies were used: Ki67 (1:100 Abcam), rabbit anti-doublecortin (1 mg/mL; Abcam), rabbit anti-glial fibrillary acidic protein (GFAP) (1:5000; Abcam), rabbit anti-Tuj1 (1 mg/mL; Abcam), mouse anti-GalC (1 mg/mL; Millipore), and rabbit anti-HMGB1 (1:100; Cell Signaling Technology).
However, in a large number of GFAP-positive cells and NeuN-positive cells, such immune responses were increased after differentiation.

[3] = test system: GalC; assay: GalC expression in 3XTg-AD mice (western blotting, immunostaining); format: in vivo; conditions: hippocampus and whole brain; s.c. three times a week for two months; vs control and Donepezil, same amount
Procedure: as §1, §2, §3

Sequence: EARPALLTSRLRFIPK (homo sapiens) [PEP1, hTERT-derived peptide consisting of 16 amino acids, telomerase location [611-626]]
- expression level of Tau [1]: decreased
- NSC differentiation into GFAP-positive and NeuN-positive cells [2]: the opposite effect was observed
- Galc [3]: increased
